Measured values reported in the NIST ThermoML archive (doi:10.1021/je8002282).
Numbers after ± are expanded uncertainties.

Assays:
[1] = xn = mol fraction of the nth substance listed; details: Liquid
[2] = Liquid

[C-]#[O+] [carbon monoxide] + COC(=O)OC
[1], Pycnometric method
Details	mass density [kg/m3]
293 K, x1 = 0.0547	1078 ± 45
293 K, x1 = 0.0679	1036.5 ± 43
293 K, x1 = 0.0838	992.5 ± 40
293 K, x1 = 0.1138	963.5 ± 39
293 K, x1 = 0.1413	919.7 ± 38
293 K, x1 = 0.1606	865.9 ± 36
313 K, x1 = 0.0534	966.4 ± 42
313 K, x1 = 0.0646	948 ± 38
313 K, x1 = 0.0868	910.2 ± 37
313 K, x1 = 0.1087	885.7 ± 36
313 K, x1 = 0.1199	834.8 ± 35
313 K, x1 = 0.1511	786.6 ± 32
353 K, x1 = 0.0485	868.7 ± 35
353 K, x1 = 0.0677	853 ± 34
353 K, x1 = 0.0752	847.4 ± 36
353 K, x1 = 0.0873	802.4 ± 36
353 K, x1 = 0.0936	773.3 ± 33
353 K, x1 = 0.1204	720.7 ± 30
373 K, x1 = 0.0418	841.2 ± 34
373 K, x1 = 0.0545	829.8 ± 34
373 K, x1 = 0.0723	801.3 ± 33
373 K, x1 = 0.084	786.7 ± 33
373 K, x1 = 0.0943	754.3 ± 32
373 K, x1 = 0.1095	710.1 ± 31

COC(=O)OC [dimethyl carbonate]
[2]
Details	vapor or sublimation pressure [kPa]
293 K	10
313 K	20 ± 20
353 K	70 ± 20
373 K	140 ± 20

COC [dimethyl ether]
[2]
Details	vapor or sublimation pressure [kPa]
293 K	520 ± 40
313 K	900 ± 70
353 K	2240 ± 170
373 K	3260 ± 240

O=O [oxygen] + COC(=O)OC
[1], determining using the ratio of the masses to the volume of the sample.
Details	mass density [kg/m3]
293.15 K, x1 = 0.0612	1087.6 ± 5.7
293.15 K, x1 = 0.0791	1062.4 ± 6.3
293.15 K, x1 = 0.097	1032 ± 6.7
293.15 K, x1 = 0.1266	984.7 ± 6.5
293.15 K, x1 = 0.1605	931.3 ± 8.4
293.15 K, x1 = 0.1977	838 ± 10
313 K, x1 = 0.0506	1056.6 ± 14
313 K, x1 = 0.061	1014.8 ± 16
313 K, x1 = 0.0748	960.2 ± 14
313 K, x1 = 0.099	885.7 ± 9.8
313 K, x1 = 0.1307	824.8 ± 6.4
313 K, x1 = 0.175	766.6 ± 5.5
353 K, x1 = 0.0412	988.5 ± 4.8
353 K, x1 = 0.0523	947.8 ± 21
353 K, x1 = 0.0614	882.2 ± 21
353 K, x1 = 0.0733	826.7 ± 29
353 K, x1 = 0.082	728.8 ± 19
353 K, x1 = 0.1018	685.3 ± 6.1
373 K, x1 = 0.0233	935.5 ± 12
373 K, x1 = 0.0347	900.2 ± 12
373 K, x1 = 0.0539	841.3 ± 11
373 K, x1 = 0.071	798.9 ± 16
373 K, x1 = 0.0858	712.5 ± 24
373 K, x1 = 0.0953	652.5 ± 25
